In US20070191324A1, “Methods for treatment or prophylaxis of aldosterone-mediated pathogenic effects in a subject using an epoxy-steroidal aldosterone antagonist” (priority 1999, published 2007):
Like-named read-outs stand apart in the source and are kept apart here.

Experiments:
[1] = test system: patients with mild to moderate hypertension; assay: Eplerenone/HCTZ dose ranging factorial design study (Example D-2); assay type: in vivo, human; details: eplerenone 25, 50 or 200 mg daily; HCTZ 12.5 or 25 mg daily; 8 weeks
Method: Patients were assessed at weeks 0, 2, 4, and 8. Study assessments at protocol-specified timepoints included blood pressure (BP), heart rate, clinical laboratory analyses, vital signs, physical examinations, 12-lead ECG, and monitoring of adverse events. A total of 614 patients were randomized.

[2] = test system: patients with low-renin hypertension; assay: Eplerenone versus losartan in low-renin hypertension, 16 weeks (Examples A-16, D-5); assay type: in vivo, human
Description: Patients will continue on therapy until Week 16. Table […] illustrates the above-described dosing scheme. […] Plasma renin will be determined at screening; serum aldosterone, plasma renin, and plasma cortisol will be determined at Weeks 0, 8, and 16. […] A 12-lead electrocardiogram will be done at Weeks 0 and 16. Physical examinations will be completed at screening and at Week 16. […] Secondary measures of efficacy will be the following: […] Study design is illustrated in FIG. D-16. […] At Weeks 8 and 16, BP, RAAS hormone profile, and safety were assessed.

[3] = test system: black and white patients with mild-to-moderate hypertension; details: for Active Renin (% change) / ΔDBP / ΔSBP: baseline to Week 16
[4] = test system: captopril-treated saline-drinking SHRSP; assay: Angiotensin II-induced renal damage in captopril-treated saline-drinking SHRSP, Protocol 2 (Example A-8); assay type: in vivo, rat (SHRSP/A3N)
Method: Animals. Studies were conducted in accordance with institutional guidelines using male SHRSP/A3N (generations F-75 to F-78), n=37, from our local colony. These animals were bred from NIH stock, derived from the SHRSP/A3N substrain described originally by Okamoto and coworkers (Okamoto K et al. Circ. Res. 34 and 35 (suppl I):I-143-I-153.). All animals were housed in a room maintained on a 12:12-h light:dark-cycle and an ambient temperature of 22±1° C. in the Animal Care Facility at New York Medical College. Rats were weaned at 4 weeks of age and allowed free access to Purina Lab Chow 5001 (Ralston Purina, St. Louis, Mo.) and tap water until the initiation of experimental protocols.
SHRSP were placed on Stroke-Prone Rodent Diet (#39-288, Zeigler Bros Inc., Gardners, Pa.) and 1% NaCl drinking solution ad libitum starting at 8.3 weeks of age. […] Animals were handled and weighed daily. Urine samples were collected for the assessment of proteinuria. Systolic blood pressure and heart rate were measured each week. After 2 weeks of treatment, animals were decapitated, trunk blood was collected into chilled EDTA tubes, and the kidneys were removed, blotted dry, and immediately weighed. Coronal sections of kidney were fixed and later processed for light microscopic evaluation.
Assays and Analyses. Systolic blood pressure and heart rate of awake animals were measured by tail-cuff plethysmography using a Natsume KN-210 manometer and tachometer (Peninsula Laboratories Inc., Belmont, Calif.). Rats were warmed at 37° C. for 10 min and allowed to rest quietly in a Lucite chamber before measurement of blood pressure. Measurements of urine volume were made gravimetrically. Urinary protein concentration was determined by the sulfosalicylic acid turbidity method. Plasma aldosterone was measured by radioimmunoassay using ^125I-aldosterone as a tracer (Coat-a Count Aldosterone, Diagnostic Products Co., Los Angeles, Calif.).
Histology. Kidneys were preserved in 10% phosphate-buffered formalin. Coronal sections (2-3 μm) were stained with hematoxylin and eosin and examined by light microscopy in a blinded fashion as previously described (Stier C T et al. J Pharmacol Exp Ther (1992) 260:1410-1415). Glomerular damage was categorized as ischemic or thrombotic. Ischemic lesions were defined as retraction of glomerular capillary tufts with or without appreciable mesangiolysis. Glomerular thrombotic lesions were defined as any one of a combination of the following: segmental to global fibrinoid necrosis, focal thrombosis of glomerular capillaries, swelling and proliferation of intracapillary (endothelial and mesangial) and/or extracapillary cells (crescents), and expansion of reticulated mesangial matrix with or without significant hypercellularity. […] Vascular thrombotic lesions were defined as any one or a combination of the following: mural fibrinoid necrosis, extravasation and fragmentation of red blood cells, and luminal and/or mural thrombosis. Proliferative arteriopathy was characterized by proliferation of markedly swollen myointimal cells with swollen round to ovoid vesicular nuclei surrounded by mucinous extracellular matrix (“onion skinning”) often resulting in nodular thickening. Vascular damage was expressed as the number of arteries and arterioles with lesions per 100 glomeruli. The presence of casts and tubular (ischemic) retraction and simplification was assessed semiquantitatively.
Statistical Analysis. Significant effects with respect to treatment and time were determined by two-way analysis of variance. Data with only one grouping variable were analyzed statistically by Student's unpaired t tests. When more than two groups were compared, one-way analysis of variance was performed followed by the post-hoc Newman-Keul's multiple comparison test. Data were analyzed using version 2.01 of the GraphPad Prism statistical software package (GraphPad Software Inc., San Diego, Calif.). P<0.05 was considered statistically significant.

[5] = test system: patients with mild-to-moderate hypertension; assay: Eplerenone versus enalapril in essential hypertension, 12-month titration-to-effect (Example D-3); assay type: in vivo, human
Method: The study design is illustrated in FIG. D-6. Patients with mild-to-moderate hypertension (diastolic blood pressure [DBP]≧95 mmHg and <110 mmHg) were randomized to receive initially EPL 50 mg QD (n=253) or ENAL 10 mg QD (n=246). If DBP ≧90 mmHg at Weeks 4, 8, 12, 16, or 20, the dose of study medication was up-titrated incrementally to EPL 100 mg and 200 mg QD, or ENAL 20 mg and 40 mg QD. […] At 24 wks and 12 months, changes in BP, RAAS hormone profile, urinary albumin excretion (urinary albumin: creatinine ratio [UACR]), laboratory tests, safety, and adverse events (AEs) were assessed.

[6] = test system: diabetic type 2 patients with hypertension and microalbuminuria; assay: Eplerenone, enalapril and combination in diabetic hypertensives with microalbuminuria, 24 weeks (Examples A-18, D-7); assay type: in vivo, human
[7] = test system: patients with hypertension and left ventricular hypertrophy; assay: Eplerenone, enalapril and combination in left ventricular hypertrophy, 9 months (Examples A-15, D-4); assay type: in vivo, human
Description: Table […] illustrates forth the above-described dosing scheme. […] Additional laboratory assessments of blood for clinical safety will be done monthly. Routine urinalysis will be done every three months. […] A blood sample for genotyping will be collected at Week 0. At screening and at Month 9, a 12-lead ECG and physical examination will be done. […] In case of early termination, an MRI and blood sample for TSH will be done for those patients who have received double-blind treatment for at least three months. At Weeks 0, 12 and Months 6 and 9, pharmacoeconomic data will be collected on all patients. The primary measure of efficacy is the change from baseline in LVM, as assessed by MRI, in the eplerenone group versus the enalapril group. […] Secondary measures of efficacy will be the following: […] (3) aortic compliance and ventricular filling parameters; and (4) special studies (PIIINP, microalbuminuria, PAI, and tPA). Additionally, the long-term safety and tolerability of the three treatment groups will be compared. […] The study design is illustrated in FIG. D-10. […] Left ventricular mass (LVM) (assayed by MRI), BP, collagen turnover, and tolerability were assessed at the 9-month endpoint.

[8] = Week 8 (monotherapy), EPL 100-200 mg QD, LOS 50-100 mg QD
[9] = Week 16, after allowed addition of HCTZ
[10] = captopril 50 mg/kg/d, angiotensin II 25 ng/min, eplerenone 100 mg/kg/d, 2 weeks
[11] = Week 24, EPL 50-200 mg QD, ENAL 10-40 mg QD titrated
[12] = 9-month endpoint, forced titration
[13] = 9-month endpoint, EPL 200 mg, ENAL 40 mg, EPL 200 mg/ENAL 10 mg

## NS(=O)(=O)c1cc2c(cc1Cl)NCNS2(=O)=O [HCTZ, reference compound]
[1]
  DBP, change from Baseline to the Final Visit: dose-dependent decreases in DBP
  SBP, change from Baseline to the Final Visit: dose-dependent decreases in SBP

## CCCCc1nc(Cl)c(CO)n1Cc1ccc(-c2ccccc2-c2nn[nH]n2)cc1 [Losartan, reference compound]
[2]; 16 weeks
  cumulative percentage of patients requiring HCTZ add-on therapy: 55.6%
[2]; Week 8
  increase in active renin levels: +63.8%
  increase in serum aldosterone levels: −18.7%
[2]; [8]
  mean change from baseline in DBP: −6.7 mmHg
  mean change from baseline in SBP: −10.1 mmHg
[2]; Week 16
  increase in active renin levels: +83.3%
  increase in serum aldosterone levels: −5.5%
[2]; [9]
  mean change from baseline in DBP: −9.8 mmHg
  mean change from baseline in SBP: −15.0 mmHg
[3]; All Patients
  Active Renin (% change): +67.1%
  ΔDBP: −6.9 mmHg
  ΔSBP: −6.3 mmHg
[3]; Black Patients
  Active Renin (% change): +40.0%
  ΔDBP: −6.0 mmHg
  ΔSBP: −5.3 mmHg
[3]; Week 16, EPL 50-200 mg QD, LOS 50-100 mg QD
  adjusted mean percent change from baseline in UACR: −18.2%
[3]; White Patients
  Active Renin (% change): +113.7%
  ΔDBP: −8.4 mmHg
[3]; human, in vivo
  safety and tolerability: safe and well-tolerated

## Angiotensin II: Angiotensin II (human type) infused by osmotic minipump (DRVYIHPF; Angiotensin-2; UniProt P01019 25-32, looked up)
[4]; [10]
  Glomerular damage, Ischemic: 13 ± 3 lesions/100 glomeruli
  Glomerular damage, Thrombotic: 2 ± 1 lesions/100 glomeruli
  Glomerular damage, Total: 15 ± 3 lesions/100 glomeruli
  Renal arteriopathy, Proliferative: 1 ± 1 lesions/100 glomeruli
  Renal arteriopathy, Thrombotic: 15 lesions/100 glomeruli
  Renal arteriopathy, Total: 16 ± 2 lesions/100 glomeruli
  plasma aldosterone concentration: 404 ± 160 pg/mL
[4]; captopril + angiotensin II 25 ng/min, with eplerenone 100 mg/kg/d or vehicle
  renal damage: 18±4%
[4]; end of study (2 weeks), captopril 50 mg/kg/d, angiotensin II 25 ng/min s.c., eplerenone 100 mg/kg/d by gavage
  proteinuria (urinary protein excretion): 96 ± 13 mg/day

## CCOC(=O)[C@H](CCc1ccccc1)N[C@@H](C)C(=O)N1CCC[C@H]1C(=O)O [Enalapril, reference compound]
[5]; 12-month study
  patients experiencing coughing: 6.5%
  patients experiencing hyperglycemia: 2.8%
  patients experiencing urinary tract infections (UTI): 2.8%
[5]; 12 months
  DBP change: −14.1 mmHg
  SBP change: −14.8 mmHg
[5]; [11]
  DBP change: −11.3 mmHg
  SBP change: −12.7 mmHg
[5]; Week 24, patients with baseline UACR ≧30 mg/g
  reduction in UACR: −25.7%
[5]; in vivo
  safety and tolerability: safe and well tolerated
[6]; 24 weeks
  patients withdrawn for hyperkalemia: 2 patients
  subjects with elevated K+ (≧6.0 mEq/L): 2 subjects
[6]; EPL 200 mg QD, ENAL 40 mg QD, EPL 200 mg/ENAL 10 mg, 24 weeks
  patients requiring addition of hydrochlorothiazide (HCTZ): 43/81
[6]; Week 8
  Adjusted mean change ΔDBP (Week 8-baseline): −11.6
  Adjusted mean change ΔSBP (Week 8-baseline): −15.4
[6]; Week 24
  Adjusted mean change ΔDBP (Week 24-baseline): −15.0
  Adjusted mean change ΔSBP (Week 24-baseline): −20.4
[6]; in vivo
  tolerability: well tolerated
[7]; [12]
  DBP Adjusted mean change: −13.0 mmHg
  SBP Adjusted mean change: −22.5 mmHg
[7]; [13]
  decrease from baseline in UACR: −39.1%
  decrease from baseline in collagen turnover: −7.3%
[7]; 9-month study
  patients experiencing coughing: 14.1%
[7]; left ventricular mass by MRI, 9-month endpoint, forced titration (EPL 50-200 mg, ENAL 10-40 mg)
  LVM Adjusted mean change [g (SE)]: −19.7 (3.20) g

## C[C@H](CS)C(=O)N1CCC[C@H]1C(=O)O [Captopril]
[4]; [10]
  Glomerular damage, Total: 0 ± 0 lesions/100 glomeruli
  Renal arteriopathy, Proliferative: 0 ± 0 lesions/100 glomeruli
  Renal arteriopathy, Thrombotic: 0 ± 0 lesions/100 glomeruli
  Renal arteriopathy, Total: 0 ± 0 lesions/100 glomeruli
  plasma aldosterone concentration: 107 ± 26 pg/mL
  tubules with ischemic retraction and simplification: absent
